Assay results: patent publication US20230322846A9, “NEUROACTIVE STEROIDS AND THEIR METHODS OF USE” (SAGE THERAPEUTICS, INC., priority 2018, published 2023)

Experiments:
[1] = molecular target: human GABAA receptors composed of the α4β3δ subunits (Homo sapiens (Human), UniProt O14764+P28472+P48169); assay: α4β3δ SyncroPatch automated patch clamp assay; format: cell-based; details: for EC50: HEK cells, potentiation of submaximal GABA current, clamped at −120 mV; for α4β3δ EMAX: peak current after GABA+compound divided by peak current after GABA alone
Protocol: (§1) The SyncroPatch 384PE (Nanion, Germany) automated patch clamp platform was used to obtain recordings from human embryonic kidney cells stably expressing human GABAA receptors composed of the α1β2γ2 and α4β3δ subunits. Cells were bathed in an extracellular solution containing: 140 mM NaCl, 4 mM KCl, 2 mM CaCl2), 1 mM MgCl2, 10 mM HEPES, 5 mM glucose and 0.1% DMSO. Solution was maintained at pH 7.4 with NaOH and 300 mOsm/L. Chips with multi-hole (4×) medium resistance (2-3M) are used for the recombinant cell line experiments. Once harvested, cells are stored in extracellular solution set to 10° C. in the cell hotel with a minimum shaking speed of 200 rpm before addition to the chip at the beginning of each experiment. Whole cell patch clamp recordings were made using an intracellular solution containing: 90 mM KCl, 50 mM KF, 1.5 mM MgCl2, 11.1 mM EGTA and 10 mM HEPES, 2 mM NaATP, maintained at pH 7.2 with KOH. Currents are leak corrected (using P/2 leak correction protocol) and sampled at 5 kHz. Cells were clamped at −120 mV. After establishing a stable baseline, a submaximal concentration of GABA (3-5 μM for cells expressing α1β2γ2 and 10 μM for cells expressing […]) was applied at a rate of 10 μl/second, immediately followed by application of GABA+compound (10 μl/second) at a single concentration of compound per cell. Compounds were tested at six concentrations (0.029, 0.12, 0.47, 1.88, 7.5, and 30 μM) in n=8-12 cells per concentration. Compound effect was determined by dividing peak current amplitude after GABA+compound by peak current amplitude after GABA alone. EC50 and Emax values were determined from average values for each concentration.

[2] = molecular target: [35S]-TBPS binding, rat brain cortical membranes; assay: Steroid inhibition of [35S]-TBPS binding; details: 3 nM [35S]-TBPS, in the presence of 5 mM GABA
Method in brief: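 Rat cortical P2 membranes incubated 90 min at room temperature with 3 nM [35S]-TBPS, […] and test compound (0.5% DMSO final) in NaCl/Na–K phosphate pH 7.4; nonspecific binding with […]. Filter-bound radioactivity counted; IC50 and Imax from nonlinear fits, mean ± SEM.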

[3] = molecular target: human GABAA receptors composed of the α1β2γ2 subunits (Homo sapiens (Human), UniProt P14867+P18507+P47870); assay: α1β2γ2 SyncroPatch automated patch clamp assay; format: cell-based; details: for EC50: HEK cells, potentiation of submaximal GABA current, clamped at −120 mV; for α1β2γ2 EMAX: peak current after GABA+compound divided by peak current after GABA alone
Protocol: as §1

Sequence of human GABAA receptors composed of the α4β3δ subunits (P48169 36-554 limits assumed): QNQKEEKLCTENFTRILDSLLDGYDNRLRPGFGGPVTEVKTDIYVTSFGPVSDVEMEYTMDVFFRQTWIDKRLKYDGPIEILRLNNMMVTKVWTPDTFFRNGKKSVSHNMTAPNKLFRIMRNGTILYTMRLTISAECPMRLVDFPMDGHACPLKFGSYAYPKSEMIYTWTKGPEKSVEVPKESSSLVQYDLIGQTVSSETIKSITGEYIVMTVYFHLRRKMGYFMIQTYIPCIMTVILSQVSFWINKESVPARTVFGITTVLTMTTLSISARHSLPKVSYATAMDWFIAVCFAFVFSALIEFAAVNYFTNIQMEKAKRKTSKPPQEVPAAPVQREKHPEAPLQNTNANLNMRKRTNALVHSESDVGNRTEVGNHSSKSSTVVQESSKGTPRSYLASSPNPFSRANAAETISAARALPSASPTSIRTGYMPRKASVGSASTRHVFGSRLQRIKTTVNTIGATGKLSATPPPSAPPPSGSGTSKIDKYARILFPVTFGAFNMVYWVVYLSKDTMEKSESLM
Sequence of human GABAA receptors composed of the α4β3δ subunits (P28472 26-473 limits assumed): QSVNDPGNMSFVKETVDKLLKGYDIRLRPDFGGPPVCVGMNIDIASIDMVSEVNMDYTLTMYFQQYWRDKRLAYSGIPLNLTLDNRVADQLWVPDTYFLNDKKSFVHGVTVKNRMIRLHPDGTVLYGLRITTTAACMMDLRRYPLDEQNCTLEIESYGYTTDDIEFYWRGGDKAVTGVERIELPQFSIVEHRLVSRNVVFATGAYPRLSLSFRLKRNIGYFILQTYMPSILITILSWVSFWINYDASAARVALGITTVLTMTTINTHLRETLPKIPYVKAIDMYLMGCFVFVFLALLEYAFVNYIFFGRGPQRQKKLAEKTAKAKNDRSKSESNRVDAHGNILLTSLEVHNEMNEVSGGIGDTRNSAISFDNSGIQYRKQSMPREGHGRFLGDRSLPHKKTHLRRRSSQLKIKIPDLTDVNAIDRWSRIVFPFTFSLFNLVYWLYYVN
Sequence of human GABAA receptors composed of the α4β3δ subunits (O14764 17-452 limits assumed): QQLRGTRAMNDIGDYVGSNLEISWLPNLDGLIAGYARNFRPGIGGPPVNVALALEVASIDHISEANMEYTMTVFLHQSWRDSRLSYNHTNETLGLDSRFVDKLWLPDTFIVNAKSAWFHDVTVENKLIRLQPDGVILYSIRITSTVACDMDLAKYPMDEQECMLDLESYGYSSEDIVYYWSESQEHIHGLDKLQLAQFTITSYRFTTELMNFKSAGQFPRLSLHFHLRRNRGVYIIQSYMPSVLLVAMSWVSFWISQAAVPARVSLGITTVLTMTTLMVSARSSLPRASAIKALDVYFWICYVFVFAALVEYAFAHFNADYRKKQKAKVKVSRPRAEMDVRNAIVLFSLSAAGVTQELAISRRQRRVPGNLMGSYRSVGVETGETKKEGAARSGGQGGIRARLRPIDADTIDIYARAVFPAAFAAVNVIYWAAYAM
Sequence of human GABAA receptors composed of the α1β2γ2 subunits (P14867 28-456 limits assumed): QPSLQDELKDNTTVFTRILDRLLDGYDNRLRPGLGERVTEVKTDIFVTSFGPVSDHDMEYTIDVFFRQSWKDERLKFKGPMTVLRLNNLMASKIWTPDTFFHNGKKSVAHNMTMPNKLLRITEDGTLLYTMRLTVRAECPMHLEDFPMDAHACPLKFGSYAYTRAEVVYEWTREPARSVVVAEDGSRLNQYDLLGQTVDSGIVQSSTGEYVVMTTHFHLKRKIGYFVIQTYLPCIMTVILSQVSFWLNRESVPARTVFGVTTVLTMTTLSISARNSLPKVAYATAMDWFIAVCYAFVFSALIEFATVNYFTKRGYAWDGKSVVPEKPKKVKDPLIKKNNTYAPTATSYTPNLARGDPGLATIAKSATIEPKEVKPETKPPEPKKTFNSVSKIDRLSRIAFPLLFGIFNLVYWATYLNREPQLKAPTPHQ
Sequence of human GABAA receptors composed of the α1β2γ2 subunits (P47870 25-512 limits assumed): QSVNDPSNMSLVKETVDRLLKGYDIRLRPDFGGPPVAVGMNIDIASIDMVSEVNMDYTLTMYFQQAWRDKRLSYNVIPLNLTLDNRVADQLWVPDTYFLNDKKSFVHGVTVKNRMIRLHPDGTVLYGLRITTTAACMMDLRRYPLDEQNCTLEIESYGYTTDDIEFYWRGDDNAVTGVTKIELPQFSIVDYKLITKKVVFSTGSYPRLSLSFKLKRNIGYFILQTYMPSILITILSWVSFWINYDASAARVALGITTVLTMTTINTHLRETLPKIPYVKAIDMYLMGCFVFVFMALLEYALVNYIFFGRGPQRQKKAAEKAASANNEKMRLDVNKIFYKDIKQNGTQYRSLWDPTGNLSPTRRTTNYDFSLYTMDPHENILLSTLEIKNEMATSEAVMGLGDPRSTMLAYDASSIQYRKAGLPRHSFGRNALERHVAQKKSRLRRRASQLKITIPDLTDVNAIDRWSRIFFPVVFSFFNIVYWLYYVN
Sequence of human GABAA receptors composed of the α1β2γ2 subunits (P18507 40-475 limits assumed): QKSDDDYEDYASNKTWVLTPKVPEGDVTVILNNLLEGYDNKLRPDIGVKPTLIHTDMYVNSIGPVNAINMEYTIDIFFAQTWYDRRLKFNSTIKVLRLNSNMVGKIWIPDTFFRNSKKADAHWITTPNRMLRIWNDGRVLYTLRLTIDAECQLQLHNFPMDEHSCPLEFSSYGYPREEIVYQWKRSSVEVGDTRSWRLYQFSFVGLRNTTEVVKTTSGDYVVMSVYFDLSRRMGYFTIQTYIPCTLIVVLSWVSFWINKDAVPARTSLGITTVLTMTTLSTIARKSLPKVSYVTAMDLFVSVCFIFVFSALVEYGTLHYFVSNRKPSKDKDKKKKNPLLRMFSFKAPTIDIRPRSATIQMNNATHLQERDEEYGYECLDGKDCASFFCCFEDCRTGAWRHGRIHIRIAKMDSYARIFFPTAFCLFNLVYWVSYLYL

Row | SMILES | EC50 [1] [nM] | α4β3δ EMAX [1] | IC50 [2] [nM] | EC50 [3] [nM] | α1β2γ2 EMAX [3]
1 | CC(C)C[C@@]1(O)CC[C@H]2[C@H](CC[C@@H]3[C@@H]2CC[C@]2(C)[C@@H]([C@@H](C)Cn4cc(C#N)cn4)CC[C@@H]32)C1 [Example 299, 1-((R)-2-((3S,5R,8R,9R,10S,13S,14S,17R)-3-hydroxy-3-isobutyl-13-methylhexadecahydro-1H-cyclopenta[a]phenanthren-17-yl)propyl)-1H-pyrazole-4-carbonitrile] | < 200 | B (B indicates an Emax response 30 to <45) | < 100 | ≥ 1000 | 
2 | Cc1cnc(C[C@H](C)[C@H]2CC[C@H]3[C@@H]4CC[C@@H]5C[C@](C)(O)CC[C@@H]5[C@H]4CC[C@]23C)cn1 [Example 439] | < 200 | C (C indicates an Emax response ≥45) | < 100 | < 200 | C (C indicates an Emax response ≥10)
3 | C[C@@H](Cc1cncc(C#N)c1)[C@H]1CC[C@H]2[C@@H]3CC[C@@H]4C[C@](C)(O)CC[C@@H]4[C@H]3CC[C@]12C [Example 407, 5-((S)-2-((3R,5R,8R,9R,10S,13R,14S,17R)-3-hydroxy-3,13-dimethylhexadecahydro-1H-cyclopenta[a]phenanthren-17-yl)propyl)nicotinonitrile] | ≥ 1000 | C (C indicates an Emax response ≥45) | < 100 | < 200 | C (C indicates an Emax response ≥10)
4 | CCC[C@@]1(O)CC[C@H]2[C@H](CC[C@@H]3[C@@H]2CC[C@]2(C)[C@@H]([C@@H](C)Cn4nnc(C)n4)CC[C@@H]32)C1 [Example 294, (3R,5R,8R,9R,10S,13S,14S,17R)-13-methyl-17-((R)-1-(5-methyl-2H-tetrazol-2-yl)propan-2-yl)-3-propylhexadecahydro-1H-cyclopenta[a]phenanthren-3-ol] | 200 to 1000 | B (B indicates an Emax response 30 to <45) | < 100 | 200 to 1000 | C (C indicates an Emax response ≥10)
5 | Cc1cnc(C[C@H](C)[C@H]2CC[C@H]3[C@@H]4CC[C@@H]5C[C@](C)(O)CC[C@@H]5[C@H]4CC[C@]23C)s1 [Example 430] | < 200 | A (A indicates an Emax response <30) | 100 to 1000 | 200 to 1000 | B (B indicates an Emax response 8 to <10)
6 | C[C@H](Cc1nccc(C#N)n1)[C@H]1CC[C@H]2[C@@H]3CC[C@@H]4C[C@](C)(O)CC[C@@H]4[C@H]3CC[C@]12C [Example 436] | ≥ 1000 | B (B indicates an Emax response 30 to <45) | 100 to 1000 | 200 to 1000 | A (A indicates an Emax response <8)
7 | CCC[C@@]1(O)CC[C@@]2(C)[C@H](CC[C@H]3[C@@H]4CC[C@H](C(C)Cn5cc(C#N)cn5)[C@@]4(C)CC(=O)[C@@H]32)C1 (stereo in doubt) [Example 339, 1-((S)-2-((3R,5R,8S,9S,10S,13S,14S,17R)-3-hydroxy-10,13-dimethyl-11-oxo-3-propylhexadecahydro-1H-cyclopenta[a]phenanthren-17-yl)propyl)-1H-pyrazole-4-carbonitrile] | < 200 | C (C indicates an Emax response ≥45) | < 100 | ≥ 1000 | C (C indicates an Emax response ≥10)
8 | CCOC[C@@]1(O)CC[C@H]2[C@H](CC[C@@H]3[C@@H]2CC[C@]2(C)[C@@H]([C@H](C)Cn4cc(C#N)cn4)CC[C@@H]32)C1 [Example 270, 1-((S)-2-((3R,5R,8R,9R,10S,13S,14S,17R)-3-(ethoxymethyl)-3-hydroxy-13-methylhexadecahydro-1H-cyclopenta[a]phenanthren-17-yl)propyl)-1H-pyrazole-4-carbonitrile] | 200 to 1000 | C (C indicates an Emax response ≥45) | < 100 | 200 to 1000 | C (C indicates an Emax response ≥10)
